In PubChem BioAssay AID179 (DTP/NCI, 2004):
Calls of active or inactive are those of the source.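 Rule for the calls: active = compounds giving half or more protection of infected cells from virus-caused growth loss, again on retest; inactive = the rest.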 Where a SMILES comes first, the peptide text is derived from it.

System: CEM cells HIV-1 protection, formazan growth assay
Assay: NCI AIDS Antiviral Assay
Conditions: for IC50: measured here: growth of uninfected CEM cells
Outline: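 Human CEM cells, uninfected and HIV-1-infected, received five drug concentrations, and growth was read by soluble formazan assay. Compounds giving at least 50% protection were retested; reproducible 100% protection defined confirmed active.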

Compound	EC50	IC50	outcome
O=[N+]([O-])c1ccc(-n2cccc2)cc1	> 200 µM	22.9 µM	
CN1CCN(C2=C(Cl)C3(OCCS3)C(F)(F)C2(F)F)CC1 (stereo not drawn)	> 132 µM	45.7 µM	
C[N+]12CCCc3cccc(c31)CCC2	> 794 µM	182 µM	
O=C1OC(=O)c2c1ccc1ccc(Cl)cc21			inactive
CC1=CC(C)(C)C(C#N)(C#N)C(N)=C1C#N	> 200 µM	95.5 µM	
O=C(O)CCSC(=S)NCCNC(=S)SCCC(=O)O	> 708 µM	437 µM	
CC(=O)/C(=C/N1C(=O)CC(=O)NC1=S)C(=O)Nc1ccccc1	> 200 µM	> 200 µM	
CC(=O)N=S(NC(=O)c1ccc(C)cc1)C(Cl)(Cl)Cl (stereo not drawn)	> 200 µM	33.9 µM	
CCCC(C)N(CC(=O)Nc1ccc(S(N)(=O)=O)cc1)C(C)=O (stereo not drawn)	> 200 µM	> 200 µM	
NC(=S)N/N=C/c1cc(CN2CCOCC2)c(N)cn1	> 200 µM	10.5 µM	
CC(C)CCCC(C)[C@H]1CC[C@H]2[C@@H]3CC[C@H]4C[C@@H](CCC=C(c5cc(Cl)c(OCc6ccc([N+](=O)[O-])cc6)c(C(=O)O)c5)c5cc(Cl)c(OCc6ccc([N+](=O)[O-])cc6)c(C(=O)O)c5)CC[C@]4(C)[C@H]3CC[C@]12C (stereo partly drawn)	> 100 µM	> 100 µM	
N#Cc1ccc(Nc2cnc3cc(N)ccc3n2)cc1	> 20 µM	> 20 µM	
Cc1c(C)c(CC(C)(COS(C)(=O)=O)COS(C)(=O)=O)c(C)c(C)c1CC(C)(COS(C)(=O)=O)COS(C)(=O)=O	> 20.9 µM	> 20.9 µM	
[CH3][Ge]([CH3])([CH2]CC#N)[S]c1ccccc1	> 200 µM	20 µM	
Cc1ccc(N=Nc2cc(C)c(N)c(N=Nc3ccc(N=Nc4cc(C(=O)O)c(O)c(S(=O)(=O)O)c4)c(C)c3)c2N)cc1	14.1 µM	> 100 µM	
CC1(C)CCCOc2cccc(c2)OCCCC(C)(C)C1=O	> 200 µM	> 200 µM	
COc1c(O)c2ccccc2c2cc(O)ccc12	> 1050 µM	5.25 µM	
CCCCC(=O)c1c(O)c2ccccc2oc1=O	> 200 µM	29.5 µM	
CNC(=O)N1CN(c2ccccc2)C2(CCN(Cc3ccccc3)CC2)C1=O	195 µM	> 200 µM	
O=c1c2cc(S(=O)(=O)Nc3ccccc3)ccc2ncn1NS(=O)(=O)c1ccccc1	> 100 µM	58.9 µM	
COc1cccc(C2C(C(=O)O)=C(CO)Oc3cc4c(cc32)OCO4)c1 (stereo not drawn)			inactive
C=C1CN(S(=O)(=O)c2ccc(C)cc2)CCCN(Cc2cccs2)CCCN(S(=O)(=O)c2ccc(C)cc2)C1	> 200 µM	70.8 µM	

Compound	EC50	IC50	outcome
COC1=NC2=CC(=O)c3c(c(OC(C)=O)c(C)c4c3C(=O)C(C)(O/C=C/C(OC)C(C)C(OC(C)=O)C(C)C(O)C(C)C(OC(C)=O)C(C)/C=C/C=C\1C)O4)C2=O (stereo not drawn)	> 200 µM	16.6 µM	
CC(=O)C(C(C)=O)C1c2ccccc2-n2nc(-c3ccccc3)c(O)c21 (stereo not drawn)	> 100 µM	0.794 µM	
CCN1CCC(O)(c2ccc(C)cc2)C(C(=O)c2ccc(C)cc2)C1 (stereo not drawn)	> 162 µM	11.7 µM	
CC1Cc2c(nc3n(c2=O)CCCCC3)O1 (stereo not drawn)	> 407 µM	> 407 µM	
COc1ccc(C2(OC)Oc3cc(OC)ccc3C(=O)C2(O)O)cc1 (stereo not drawn)	> 200 µM	10.7 µM	
COC(=O)C(C#N)C1NC(=O)c2ccccc21 (stereo not drawn)	> 81.3 µM	> 81.3 µM	
C=CCNC1=C2C[C@@H](C)C[C@@H](OC)C(OC(=O)CCCN(C)C)[C@H](C)/C=C(\C)[C@@H](OC(N)=O)[C@H](OC)/C=C\C=C(/C)C(=O)NC(=CC1=O)C2=O (stereo partly drawn)	> 200 µM	11 µM	
CC(=O)NC(NNC(NC(C)=O)(c1ccccc1)c1ccccc1)(c1ccccc1)c1ccccc1	> 200 µM	> 200 µM	
CN(C)c1ccc(C(C2=C(O)c3ccccc3C(=O)C2=O)C2=C(O)c3ccccc3C(=O)C2=O)cc1	> 200 µM	30.9 µM	
CCOP(=O)(CC(=O)C1CC1)OCC			inactive
N#CC(C#N)=CSc1ccccc1			inactive
C/C1=C/C2OC(=O)C3(C)C2C(CC2(C)OC1=CC2=O)OC3(O)C(C)C (stereo not drawn)	> 102 µM	10.5 µM	
COc1ccccc1N=NC1=C2Nc3ccccc3N=C1N(c1ccccc1OC)C(=S)N2c1ccccc1C			inactive
C=CCNC(=O)NNC(O)(C(=O)OCC)C(F)(F)F (stereo not drawn)	> 200 µM	174 µM	
NC(CSCc1ccccc1)C(=O)O (stereo not drawn)	> 224 µM	> 224 µM	
CSc1ncc2c(C#N)c3ccccn3c(=O)c2n1	> 200 µM	> 200 µM	
CCC(C)C(NC(=O)C(N)CCCCN)C(=O)NC(CCC(=O)O)C(=O)NC(CO)C(=O)NC(C)C(=O)NC(C(=O)NC(CC(N)=O)C(=O)NC(CC(C)C)C(=O)NC(CO)C(=O)NC(CCC(N)=O)C(=O)O)C(C)O (stereo not drawn) (H-KIESATNLSQ-OH; configuration not given here)	> 57.5 µM	> 57.5 µM	
O=C(C=Nc1ccccc1C(=O)[O-])c1ccco1.O=C(C=Nc1ccccc1C(=O)[O-])c1ccco1.[Co+2]	> 1.38 µM	> 1.38 µM	
Cc1nc(N)sc1C(=O)Nc1ncn[nH]1	> 200 µM	117 µM	
Cc1ccc(NC(=O)CC2C(=O)Nc3ccccc3S2=O)c(C)c1 (stereo not drawn)	> 15.1 µM	> 15.1 µM	
CCOC(=O)C1SC(=Nc2ccc(Cl)c(Cl)c2)N=C1C (stereo not drawn)	> 11.5 µM	> 11.5 µM	
O=c1c(=O)c2cc(O)ccc12	> 1700 µM	282 µM	

Compound	EC50	IC50	outcome
CC(C)(C)OC(=O)N1N=NC2C3CC(=O)C(O3)C21 (stereo not drawn)	> 977 µM	11 µM	
COc1cc(-c2cc(=O)c3c(O)cc(O)cc3o2)cc(OC)c1OC	> 64.6 µM	> 64.6 µM	
CC(C)CC(N)C(=O)NC(CC(=O)O)C(=O)NC(CCCCN)C(=O)NC(C)C(=O)NC(CO)C(=O)NC(Cc1ccc(O)cc1)C(=O)NC(CO)C(=O)NC(C(=O)NC(CC(N)=O)C(=O)O)C(C)O (stereo not drawn) (H-LDKASYSTN-OH; configuration not given here)	> 50.1 µM	> 50.1 µM	
CCCCCCCCC(=O)NCCN(CCN)C(=O)CCCCCCCC	> 100 µM	5.5 µM	
CCCCN(CCCC)CC(C(C)=O)C(c1ccccc1)c1c(O)c2ccccc2oc1=O (stereo not drawn)	> 41.7 µM	> 41.7 µM	
CCOC(=O)c1[nH]cc(C)c1-c1ccn(-c2ccccc2)c1	> 200 µM	45.7 µM	
CN(c1ccccc1)c1nc(=[N+](C)C)ss1			inactive
O=c1ssc2ccccc12	> 200 µM	120 µM	
O=C(OC(=C(c1ccccc1)c1ccccc1)N1CCCC1=S)C(c1ccccc1)c1ccccc1	> 200 µM	> 200 µM	
CCc1cc(CCC(=O)Nc2c(C)cccc2C)nc(NC#N)n1			inactive
CNC(=O)c1n[nH]n(C2CCCCC2)c1=S			inactive
CC(=O)OCc1cc(OC(C)=O)cnc1COC(C)=O	> 468 µM	> 468 µM	
COC(=O)c1ccccc1CC1Cc2cc3c(cc2C1)CCC3	> 200 µM	38 µM	
C[S+](C)CCOC(=O)C(=[N+]=[N-])c1ccc([N+](=O)[O-])cc1			inactive
COc1ccc(/C(=N/O)c2ccccc2C2=Nc3ccccc3C(NCc3ccccc3)O2)cc1C (stereo not drawn)	> 200 µM	22.4 µM	
CC1=NN(C(=O)Cc2ccccc2)C(=O)/C1=C\C=C\c1ccccc1	> 57.5 µM	> 57.5 µM	
O=C(OC1CCCCC1)c1cc(NC(=S)c2ccccc2F)ccc1Cl	0.0363 µM	18.2 µM	
COc1ccc(NC(=O)CC(=O)N2N=C(N3CCCCC3)CC2c2ccccc2)cc1 (stereo not drawn)	> 200 µM	> 200 µM	
COc1ccc2c(c1)C(=O)c1ccc(OC)cc1C2=S			inactive
CC(=O)OC1=NC(C)c2c1cc(OC(C)=O)[nH]c2=O (stereo not drawn)	> 14.5 µM	> 14.5 µM	
C[n+]1c(-c2ccc(/C=N/NC(=O)c3ccc(C(=O)N/N=C/c4ccc(-c5cn6ccccc6[n+]5C)cc4)c(O)c3O)cc2)cn2ccccc21	8.32 µM	8.71 µM	
CN=c1sc2c(n1C)C(=O)c1ccccc1C2=O	> 200 µM	9.33 µM	

Compound	EC50	IC50	outcome
COC(=O)CCc1c(Cc2ccc[nH]2)[nH]c(C(=O)OCc2ccccc2)c1C	> 200 µM	30.9 µM	
O=CCCCC(Sc1ccccc1)Sc1ccccc1			inactive
S=C(Nc1ccc(N=Nc2ccccc2)cc1)SCc1ccc2c(c1)OCO2	> 200 µM	10.7 µM	
CSc1nncc2[nH]c(C)nc12	> 200 µM	> 200 µM	
NC(=O)NCCCC(NC(=O)OCCCCn1ccc(=O)[nH]c1=O)C(=O)O (stereo not drawn)	> 200 µM	> 200 µM	
CC[C@@]1(O)C(=O)OCc2c1cc1n(c2=O)Cc2cc3cc(OC)ccc3nc2-1	> 0.1 µM	0.0186 µM	
Cc1ccc(-c2c(C#N)c(S)n(NS(=O)(=O)c3ccccc3)c(=O)c2C#N)cc1	> 200 µM	18.6 µM	
CCOC(=O)c1nc2cc(C(F)(F)F)ccc2nc1Oc1ccc(F)cc1	> 200 µM	186 µM	
CNC(=O)Oc1cccc(CN(C)C)c1	> 200 µM	> 200 µM	
C/C(CC(=O)Nc1ccccc1[N+](=O)[O-])=N\NC(N)=O	> 468 µM	> 468 µM	
Nc1ccc(S(=O)(=O)Nc2nc3ccccc3nc2Nc2ccc(S(N)(=O)=O)cc2)cc1	> 200 µM	20.4 µM	
CN(C)c1ccc(/C=C(\C#N)C(=O)c2ccccc2)cc1	> 29.5 µM	6.17 µM	
NC(CC(=O)O)C(=O)O (stereo not drawn)	> 38.9 µM	> 38.9 µM	
CCc1cccc(C)c1NC(=O)CCc1n[nH]c(=S)o1	> 617 µM	> 617 µM	
COc1ccc(Br)c(CCCCCCCC(=O)O)c1	> 100 µM	> 100 µM	
COC(=O)C(Cc1nc2ccc(Cl)cc2[nH]c1=O)C(=O)C(=O)Nc1ccccc1[N+](=O)[O-] (stereo not drawn)	> 148 µM	> 148 µM	
CCCCC(CC)CO[Si](OCC(CC)CCCC)(OCC(CC)CCCC)OCC(CC)CCCC (stereo not drawn)			inactive
O=c1oc2ccccc2c(O)c1C(c1ccc(/C=C/c2ccccc2)cc1)c1c(O)c2ccccc2oc1=O	> 200 µM	15.1 µM	
CC(CCC(=O)O)[C@H]1CCC2[C@@H]3CC[C@@H]4CC(O)CC[C@]4(C)C3CC[C@@]21C (stereo partly drawn)	> 200 µM	> 100 µM	
